Drawing on patent US20170217948A1, “XANTHINE OXIDASE INHIBITOR” (Teijin Pharma Limited, priority 2014, published 2017), this text covers inhibition in vivo and hypouricemic effect for three compounds.

Assay [1] deals with XO activity (oxidase-type xanthine oxidoreductase) (Rattus norvegicus, UniProt P22985). Put plainly: Prolonged inhibition of tissue and plasma XO activity after oral administration (pterin-based assay). The note with it: 27 h.
Description: The tissue includes liver, kidney, adipose tissue, intestine and vessel.
A test compound suspended in a 0.5% methylcellulose solution was administered to 7 to 9 week-old Sprague-Dawley male rats (Japan Charles River Co.) by oral gavage administration using a feeding needle. The blood was collected from the abdominal vein and tissue was collected at 24 or 27 hours after administration. Plasma sample was prepared by centrifugation.
Tissue XO activity, tissue XOR activity and plasma XO activity were measured by the pterin-based assay which utilizes the reaction that pterin is oxidized by each type of xanthine oxidoreductase to produce fluorescent isoxanthopterin. […] Then the homogenates were centrifuged 12,000 rpm for 15 min at 4° C. When measured XO activity, the supernatant of tissue and plasma were respectively co-incubated with 50 μM pterin solution at 37° C. When measured XOR activity, the supernatant of tissue homogenate was co-incubated with 50 μM pterin and 50 μM methylene blue solution at 37° C. As a control, oxidase-type xanthine oxidoreductase (from buttermilk, manufactured by Calbiochem Novabiochem Corp.) was also incubated with pterin solution in the same manner. XO activity and XOR activity of the samples were determined from fluorescence intensity which normalized by the intensity value of control and protein concentration.
The percentage of XO activity inhibition and XOR activity inhibition were determined by the following expression:
Percentage of XO or XOR activity inhibition (%)=(XO or XOR activity of the control animal−XO or XOR activity of the test compound-administered animal)×100/XO or XOR activity of the control animal.
Assay [2] is described as follows: Hypouricemic effect (oxonic acid-induced hyperuricemic beagle dogs). The settings on record: hyperuricemic beagle dog, oral, 10 mg/kg, 8 hours after administration. It is filed as in vivo. Here is the method:
Potassium oxonate (50 mg/kg) was subcutaneously administrated before and 4 hours after compound administration. After the blood was collected from the cephalic vein at 8 hours after administration, the plasma was separated. The level of uric acid in the plasma sample was measured by LC-MS/MS method and the percentage of hypouricemic effect was determined by the following expression:
Percentage of hypouricemic effect (%)=(Level of uric acid of the control animal−Level of uric acid of the test compound-administered animal)×100/Level of uric acid of the control animal.

[3] abbreviates: read-out: % inhibition of XO activity (vs. vehicle), Kidney, 1 mg/kg, 27 hours after administration.
[4] abbreviates: read-out: % inhibition of XO activity (vs. vehicle), Kidney, 10 mg/kg, 27 hours after administration.
Where [5] appears, read: read-out: % inhibition of XO activity (vs. vehicle), Liver, 1 mg/kg, 27 hours after administration.
The mark [6] stands for this setting: read-out: % inhibition of XO activity (vs. vehicle), Liver, 10 mg/kg, 27 hours after administration.
[7] abbreviates: read-out: % inhibition of XO activity (vs. vehicle), Plasma, 1 mg/kg, 27 hours after administration.
The mark [8] stands for this setting: read-out: % inhibition of XO activity (vs. vehicle), Plasma, 10 mg/kg, 27 hours after administration.

The structures appear in SMILES notation. Like-named read-outs stand apart in the source and are kept apart here. Where only a bound is given, the exact number is not on record here.

XO activity (oxidase-type xanthine oxidoreductase), sequence (P22985 whole entry): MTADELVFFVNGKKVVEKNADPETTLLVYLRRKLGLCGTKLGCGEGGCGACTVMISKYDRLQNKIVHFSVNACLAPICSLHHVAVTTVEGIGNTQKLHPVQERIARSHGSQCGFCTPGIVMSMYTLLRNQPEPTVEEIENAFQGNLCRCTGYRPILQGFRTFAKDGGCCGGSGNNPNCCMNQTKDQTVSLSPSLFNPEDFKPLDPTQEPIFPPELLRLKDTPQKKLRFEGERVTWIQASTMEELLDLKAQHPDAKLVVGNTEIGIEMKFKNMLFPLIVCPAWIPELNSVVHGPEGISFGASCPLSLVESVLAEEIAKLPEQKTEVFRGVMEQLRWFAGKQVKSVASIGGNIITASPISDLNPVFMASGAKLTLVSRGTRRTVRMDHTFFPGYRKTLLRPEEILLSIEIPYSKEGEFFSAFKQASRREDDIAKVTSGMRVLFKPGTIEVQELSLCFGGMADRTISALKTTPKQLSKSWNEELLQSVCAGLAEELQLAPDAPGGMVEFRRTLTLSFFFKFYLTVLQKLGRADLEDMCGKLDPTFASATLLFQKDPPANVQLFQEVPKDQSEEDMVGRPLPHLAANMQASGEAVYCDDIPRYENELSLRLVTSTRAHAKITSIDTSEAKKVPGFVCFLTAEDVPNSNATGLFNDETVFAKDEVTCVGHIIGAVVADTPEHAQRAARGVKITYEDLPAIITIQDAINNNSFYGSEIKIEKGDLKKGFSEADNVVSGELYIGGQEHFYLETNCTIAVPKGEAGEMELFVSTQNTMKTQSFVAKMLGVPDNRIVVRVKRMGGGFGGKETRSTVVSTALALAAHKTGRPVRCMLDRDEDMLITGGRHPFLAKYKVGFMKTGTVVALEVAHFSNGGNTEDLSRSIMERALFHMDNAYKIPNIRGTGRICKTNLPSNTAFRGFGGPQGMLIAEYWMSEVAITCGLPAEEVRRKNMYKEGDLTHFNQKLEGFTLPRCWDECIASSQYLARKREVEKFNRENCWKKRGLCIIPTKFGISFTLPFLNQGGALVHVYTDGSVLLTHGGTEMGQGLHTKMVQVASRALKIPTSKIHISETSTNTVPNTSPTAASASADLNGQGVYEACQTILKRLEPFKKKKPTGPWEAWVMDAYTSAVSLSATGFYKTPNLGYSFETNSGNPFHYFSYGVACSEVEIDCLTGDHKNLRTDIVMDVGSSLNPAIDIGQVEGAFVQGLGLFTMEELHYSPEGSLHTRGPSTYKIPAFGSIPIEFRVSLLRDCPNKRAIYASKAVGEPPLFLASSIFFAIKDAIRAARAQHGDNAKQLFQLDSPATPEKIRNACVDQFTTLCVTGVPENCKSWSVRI

Take `Cc1nc(-c2ccc(OCC(C)(C)C)c(-n3cnnn3)c2)sc1C(=O)O` [Compound 26, 2-[4-(2,2-dimethylpropoxy)-3-(1H-1,2,3,4-tetrazol-1-yl)phenyl]-4-methyl-1,3-thiazole-5-carboxylic acid]: the values for the inhibition in vivo at 1 mg/kg in assay [1] (setting [3]), in assay [1] (setting [5]) and in assay [1] (setting [7]) were at least 60%, at least 80% and at least 25%, respectively. Moreover, the values for the inhibition in vivo at 10 mg/kg in assay [1] (setting [4]), in assay [1] (setting [6]) and in assay [1] (setting [8]) were at least 70%, at least 80% and at least 40%, respectively.
Turning to `Cc1nc(-c2ccc(OCC(C)C)c(-n3ccnn3)c2)sc1C(=O)O` [Compound 17, 4-methyl-2-[4-(2-methylpropoxy)-3-(1H-1,2,3-triazol-1-yl)phenyl]-1,3-thiazole-5-carboxylic acid], the inhibition in vivo at 1 mg/kg is at least 60% in assay [1] (setting [3]), at least 80% in assay [1] (setting [5]) and at least 25% in assay [1] (setting [7]). Also, the inhibition in vivo at 10 mg/kg in assay [1] (setting [4]) was at least 70%; in assay [1] (setting [6]), at least 80%; in assay [1] (setting [8]), at least 40%.
As for `Cc1nc(-c2ccc(OCC(C)C)c(-n3cnnn3)c2)sc1C(=O)O` [Compound 25, 4-methyl-2-[4-(2-methylpropoxy)-3-(1H-1,2,3,4-tetrazol-1-yl)phenyl]-1,3-thiazole-5-carboxylic acid], the hypouricemic effect result in assay [2] is “showed a hypouricemic effect”.
